Columns and labels:
[1] = test system: IICR (IP3 induced calcium release) in CHO cells; assay: Assay of IICR (IP3 induced calcium release)-inhibiting action; type: cell-based, Chinese hamster; conditions: CHO cells, 10 μM ATP; for inhibition at 10 µM / inhibition at 30 µM / inhibition at 100 µM: Cricetulus griseus, CHO, read-out: IICR level (percentage of inhibition)
In short: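 CHO cell medium replaced with calcium-containing BSS; compound added 1 min later, then 10 μM ATP after a further 2 min. Percent inhibition of the ATP-evoked rise in intracellular calcium determined at each compound concentration.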

[2] = test system: SOCE (store operated calcium entry) in CHO cells; assay: Assay of SOCE (store operated calcium entry)-inhibiting action; type: cell-based, Chinese hamster; conditions: CHO cells, thapsigargin; for inhibition at 30 µM / inhibition at 100 µM / inhibition at 10 µM: Cricetulus griseus, CHO, read-out: SOCE level (percentage of inhibition)
In short: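 CHO cells in calcium-free BSS received compound, then 1 μM thapsigargin 2 min later to deplete stores; after 9 min, 2 mM calcium chloride (final) added. Percent inhibition of the rise in intracellular calcium determined at various compound concentrations.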

Row | Structure (SMILES) | inhibition at 10 µM ([1]; test compound 10 μmol) [%] | inhibition at 30 µM ([1]; test compound 30 μmol) [%] | inhibition at 100 µM ([1]; test compound 100 μmol) [%] | inhibition at 30 µM ([2]; test compound 30 μmol) [%] | inhibition at 100 µM ([2]; test compound 100 μmol) [%] | inhibition at 10 µM ([2]; test compound 10 μmol) [%] | IICR level (percentage of inhibition) ([1]; test compound 10 μmol) [%] | SOCE level (percentage of inhibition) ([2]; test compound 10 μmol) [%] | SOCE level (percentage of inhibition) ([2]; test compound 30 μmol) [%] | SOCE level (percentage of inhibition) ([2]; test compound 100 μmol) [%] | IICR level (percentage of inhibition) ([1]; test compound 30 μmol) [%] | IICR level (percentage of inhibition) ([1]; test compound 100 μmol) [%]
1 | O=C(CCNCCCO)c1cnccn1 [Example 270, 2-(N-hydroxypropyl)aminoethyl-2-pyrazylketone] | 20 | 0 | 10 | 10 | 30 |  |  |  |  |  |  | 
2 | Cn1cccc1C(=O)CCN(Cc1ccccc1)C(C)(C)C [Example 165, 2-(N-benzyl-t-butyl)aminoethyl-2-(N-methylpyrrolyl)ketone] | 0 | 0 | 0 | 0 | 0 | 0 |  |  |  |  |  | 
3 | CN(CCO)CCC(=O)c1cccs1 [Example 126, 2-(N-methylhydroxyethyl)aminoethyl-2-thiophenylketone] | 20 | 20 | 70 | 0 | 0 | 0 |  |  |  |  |  | 
4 | CN1CCN(CCC(=O)c2ccccc2)CC1 [Example 131, 2-(N-methylpiperazyl)ethylphenylketone] | 30 | 20 | 50 | 0 | 0 | 0 |  |  |  |  |  | 
5 | CCC(CO)(CO)NCCC(=O)c1cccc2ccccc12 [Example 141] | 20 | 20 | 20 | 0 | 0 | 0 |  |  |  |  |  | 
6 | Cc1cccc2cc(C(=O)CCN(Cc3ccccc3)C(C)C)ccc12 [Example 79, 2-(N-isopropylbenzyl)aminoethyl-5-methyl-2-naphthylketone] | 70 | 90 | 90 | 30 | 70 | 10 |  |  |  |  |  | 
7 | CC(C)(C)N(CCO)CCC(=O)c1cccs1 [Example 246, 2-(N-t-butyl-2-hydroxyethyl)aminoethyl-2-thiophenylketone] | 10 | 0 | 0 | 0 | 0 | 0 |  |  |  |  |  | 
8 | COc1ccc(C(=O)CCN(CCO)CCO)cc1 [Example 148, 2-(N-bishydroxyethyl)aminoethyl-4-methoxyphenylketone] | 20 | 30 | 90 | 0 | 0 | 0 |  |  |  |  |  | 
9 | O=C(CCN(CCO)CCO)c1ccc(Cl)s1 [Example 277, 2-bis(N-2-hydroxyethyl)aminoethyl-5-chloro-2-thienylketone] | 0 | 0 | 20 | 0 | 0 |  |  |  |  |  |  | 
10 | CCN(CCO)CCC(=O)c1cc(C)sc1C [Example 228, 2-(N-2-hydroxyethylethyl)aminoethyl-2,5-dimethyl-3-thiophenylketone] | 20 | 0 | 20 | 0 | 20 | 0 |  |  |  |  |  | 
11 | CCN(CCC(=O)c1ccccn1)Cc1ccccc1 [Example 242, 2-(N-benzylethyl)aminoethyl-2-pyridylketone] | 30 | 80 | 90 | 0 | 0 | 0 |  |  |  |  |  | 
12 | CN(CCC(=O)c1ccc(Cc2ccccc2)cc1)Cc1ccccc1 [Example 104, 2-(N-methylbenzyl)aminoethyl-4-benzylphenylketone] | 40 | 20 | 90 | 10 | 70 | 0 |  |  |  |  |  | 
13 | CCN(CCC(=O)c1cnccn1)Cc1ccccc1 [Example 111, 2-(N-ethylbenzyl)aminoethyl-2-pyrazinylketone] | 30 | 80 | 95 | 0 | 0 | 0 |  |  |  |  |  | 
14 | CC(C)N(CCC(=O)c1ccc(Cc2ccccc2)cc1)Cc1ccccc1 [Example 64, 2-(N-isopropylbenzyl)aminoethyl-4-benzylphenylketone] |  | 70 | 96 |  |  |  | 50 | 0 | 0 | 30 |  | 
15 | CC(C)N(CCC(=O)n1ccnc1)Cc1ccccc1 [Example 224, 2-(N-isopropylbenzyl)aminoethyl-1-imidazolylketone] | 20 | 20 | 0 | 0 | 20 | 0 |  |  |  |  |  | 
16 | Cn1cccc1C(=O)CCN(CCO)Cc1ccccc1 [Example 164, 2-(N-benzyl-2-hydroxyethyl)aminoethyl-2-(N-methylpyrrolyl)ketone] | 0 | 0 | 40 | 0 | 10 | 0 |  |  |  |  |  | 
17 | CCC(C)N(CCC(=O)c1sccc1Br)C(C)CC (stereo not shown) [Example 413] | 48 | 81 | 78 | 40 | 50 | 20 |  |  |  |  |  | 
18 | CC(C)N(CCO)CCC(=O)c1ccc(Cl)cc1 [Example 311, 2-(N-hydroxyethylisopropyl)aminoethyl-4-chloro-phenylketone] | 50 | 30 | 50 | 0 | 10 | 0 |  |  |  |  |  | 
19 | COC(=O)C(CSSCC(NCCC(=O)c1cnccn1)C(=O)OC)NCCC(=O)c1cnccn1 (stereo not shown) [Example 402, N,N-bis(2-pyrazinoylethyl)cystinemethylester] | 39 | 12 | 28 | 40 | 50 | 20 |  |  |  |  |  | 
20 | O=C(CCNCCc1ccccc1)c1ccc(Br)s1 [Example 351, 2-phenethylaminoethyl-5-bromo-2-thienylketone] | 30 | 0 | 0 | 9 | 32 | 0 |  |  |  |  |  | 
21 | CN(CCO)CCC(=O)c1nccs1 [Example 291, 2-(N-2-hydroxyethylmethyl)aminoethyl-2-thiazolylketone] | 40 | 70 | 100 | 0 | 0 | 0 |  |  |  |  |  | 
22 | CCN(CC)CCC(=O)c1ccc(Oc2ccccc2)cc1 [Example 116, 2-(N-diethyl)aminoethyl-4-phenoxyphenylketone] | 20 | 20 | 70 | 0 | 20 | 0 |  |  |  |  |  | 
23 | CCCCN(CCC(=O)c1ccc(Cl)s1)Cc1ccccc1 [Example 374, 2-(N-butyl-N-benzyl)aminoethyl-5-chloro-2-thienylketone] | 0 | 8 | 0 | 0 | 53 | 0 |  |  |  |  |  | 
24 | Cc1ccc(C(=O)CCN(Cc2ccccc2)Cc2ccccc2)o1 [Example 138, 2-(N-dibenzyl)aminoethyl-5-methyl-2-furylketone] | 0 | 0 | 10 | 10 | 20 | 0 |  |  |  |  |  | 
25 | O=C(CCNCCO)c1ccc(Br)s1 [Example 307, 2-(N-hydroxyethyl)aminoethyl-5-bromo-2-thienylketone] |  |  |  |  |  | 0 | 30 |  | 10 | 10 | 20 | 30
26 | O=C(CCN(CCO)c1ccccc1)c1ccc(Br)s1 [Example 359, 2-(N-hydroxyethyl-N-phenyl)aminoethyl-5-bromo-2-thienylketone] | 0 | 0 | 70 | 24 | 57 | 0 |  |  |  |  |  | 
27 | O=C(CCN(CCO)Cc1ccccc1)c1cnccn1 [Example 129, 2-(N-benzylhydroxyethyl)aminoethyl-2-pyrazylketone] | 0 | 50 | 90 | 0 | 0 | 0 |  |  |  |  |  | 

Reference: patent US8937091B2 (Japan Science and Technology Agency, priority 2009, dated 2015)
